Test results as given in patent publication US10968217B2, “Tetrahydropyridopyrimidines for the treatment and prophylaxis of hepatitis B virus infection” (Hoffmann-La Roche Inc., priority 2016, dated 2021).

What was measured:
[1] = system: HBV DNA; assay: HBV DNA assay (real-time qPCR of extracellular HBV DNA, HepG2.2.15 cells); type: cell-based; conditions: Hepatitis B virus, 144 h, extracellular HBV DNA in supernatant, six days after treatment, read-out: IC50 (Anti HBV DNA production activity)
Protocol: (§1) HepG2.2.15 cells (Acs et al. Proc Natl Acad Sci USA, 84, (1987), 4641-4), a constitutively HBV-expressing cell line were cultured in DMEM+Glutamax-I medium (Invitrogen, Carlsbad, Calif., USA), supplemented with 10% fetal bovine serum (Invitrogen) and G418 (Invitrogen) at a final concentration of 200 mg/L and maintained in 5% CO2 at 37° C.
The assay employs real-time qPCR (TaqMan) to directly measure extracellular HBV DNA copy number in the cell supernatant. HepG2.2.15 cells were plated in 96-well microtiter plates before treatment with complete medium (DMEM, Glutamax, 10% FBS, 1% Penicillin/Streptomycin, 250 μg/mL Genetycin, final DMSO concentration is 1%). Only the interior wells were utilized to reduce “edge effects” observed during cell culture, the exterior wells were filled with complete medium to help minimize sample evaporation. […]

[2] = system: HBsAg; assay: HBsAg assay (CLIA of secreted HBsAg in HepG2.2.15 culture supernatant); type: cell-based, HBV; conditions: Hepatitis B virus, HepG2.2.15, read-out: IC50 (HBsAg assay)
Protocol: as §1
HepG2.2.15 cells were seeded in duplicate into white, 96-well plates at 1.5×10^4 cells/well. The cells were treated with a three-fold serial dilution series of the compounds in DMSO. The final DMSO concentration in all wells was 1% and DMSO was used as no drug control.
The HBsAg chemiluminescence immunoassay (CLIA) kit (Autobio Diagnostics Co., Zhengzhou, China, Catalog number: CL0310-2) was used to measure the levels of secreted HBV antigens semi-quantitatively. For the detection 50 μL/well culture supernatant was used and HBsAg was quantified using HBsAg chemiluminescence immunoassay (CLIA) kit (Autobio Diagnostics Co., Zhengzhou, China, Catalog number: CL0310-2), 50 μL of the supernatant was transferred to the CLIA assay plate and 50 μL of enzyme conjugate reagent was added into each well. The plates were sealed and gently agitated for 1 hour at room temperature. The supernatant-enzyme-mixture was discarded and wells were washed 6 times with 300 μL of PBS. The residual liquid was removed by plating the CLIA plate right side down on absorbent tissue paper. 25 μL of substrates A and B were added to each well. Luminance was measured using a luminometer (Mithras LB 940 Multimode Microplate Reader) after 10 minutes incubation. Dose-response curves were generated and the IC50 value was extrapolated by using the E-WorkBook Suite (ID Business Solutions Ltd., Guildford, UK). The IC50 was defined as the compound concentration at which HBsAg secretion was reduced by 50% compared to the no drug control.

`COc1ccc(C(=O)N2CCc3nc(-c4ccccn4)ncc3C2C)s1` (centres unmarked) [Example 58, (5-Methoxy-2-thienyl)-[5-methyl-2-(2-pyridyl)-7,8-dihydro-5H-pyrido[4,3-d]pyrimidin-6-yl]methanone] showed an IC50 [1] of 41.9 µM and an IC50 [2] of 279 nM.
